The results in this text go back to patent US12673946B2, “Pyrimidin-4(3H)-one derivatives as TRPV4 antagonists” (RaQualia Pharma Inc., priority 2020, dated 2026).

This assay deals with T1, human TRPV4 (Homo sapiens, UniProt Q9HBA0).
T1 construct: host or cells: tetracycline-inducible Flp-In T-REx 293 cells
Description: Hypotonicity-induced Ca2+ influx (Fluo-4, FDSS). Format: cell-based. The gist of the method: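 Flp-In T-REx 293 cells with tetracycline-induced human TRPV4, loaded with Fluo-4 for 60 min at 25 °C. Compound added 5 min before hypotonic mannitol/CaCl2 solution. Ca2+ signal recorded for 4.5 min on FDSS.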

Where [1] appears, read: Flp-In T-REx 293 cells expressing human TRPV4, examples listed under heading 'Human IC50<50 nM'.
The mark [2] stands for this setting: Flp-In T-REx 293 cells stably expressing human TRPV4, compounds listed by potency bin (<10 nM Tables 96-1/96-2, <3 nM Table 97).

Molecules are shown by their SMILES.

T1 sequence (Q9HBA0 whole entry): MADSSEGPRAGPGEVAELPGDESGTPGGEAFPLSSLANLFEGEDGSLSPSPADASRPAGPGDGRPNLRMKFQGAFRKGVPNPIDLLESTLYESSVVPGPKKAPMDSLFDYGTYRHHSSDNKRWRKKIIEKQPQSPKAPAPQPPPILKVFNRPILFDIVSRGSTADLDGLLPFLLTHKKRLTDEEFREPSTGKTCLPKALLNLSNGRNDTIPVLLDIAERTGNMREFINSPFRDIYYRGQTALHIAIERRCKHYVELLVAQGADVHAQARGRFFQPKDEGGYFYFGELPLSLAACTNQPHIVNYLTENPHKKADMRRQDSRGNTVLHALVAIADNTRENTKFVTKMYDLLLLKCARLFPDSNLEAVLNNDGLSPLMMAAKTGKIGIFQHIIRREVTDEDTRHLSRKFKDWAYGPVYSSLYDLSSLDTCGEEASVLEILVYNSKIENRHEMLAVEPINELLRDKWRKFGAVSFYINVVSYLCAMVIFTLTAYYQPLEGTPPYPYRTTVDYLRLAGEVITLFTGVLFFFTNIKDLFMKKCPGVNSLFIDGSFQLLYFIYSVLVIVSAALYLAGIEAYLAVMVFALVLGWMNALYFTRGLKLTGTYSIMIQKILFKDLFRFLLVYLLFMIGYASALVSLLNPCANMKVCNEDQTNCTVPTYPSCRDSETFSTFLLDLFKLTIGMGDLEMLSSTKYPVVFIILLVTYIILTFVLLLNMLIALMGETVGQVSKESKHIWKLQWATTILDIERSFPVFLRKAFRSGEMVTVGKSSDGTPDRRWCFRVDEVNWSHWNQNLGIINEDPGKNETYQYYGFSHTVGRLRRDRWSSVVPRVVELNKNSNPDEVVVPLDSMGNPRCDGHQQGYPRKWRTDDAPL

Molecule `CC(C)(C)c1cccc(CC(=O)N2CCCc3nc(C4(c5ccccc5)CC4)[nH]c(=O)c3C2)c1` [17-142] showed an IC50 under setting [1] below 50 nM. The molecule `O=C(Cc1ccccc1Oc1ccccc1)N1CCCc2nc(C3(c4ccccc4)CC3)[nH]c(=O)c2C1` [17-143] gave a 50% inhibitory concentration (IC50) under setting [1] below 50 nM. The same measure, in the same setting: next, `O=C(Cc1cccc(Oc2ccccc2)c1)N1CCCc2nc(C3(c4ccccc4)CC3)[nH]c(=O)c2C1` [17-144]: below 50 nM. For `O=C(Cc1ccccc1OCc1ccccc1)N1CCCc2nc(C3(c4ccccc4)CC3)[nH]c(=O)c2C1` [17-145], the half-maximal inhibitory concentration (IC50) is below 50 nM under setting [1] and below 10 nM under setting [2]. On the same counts, the results for `O=C(Cc1cccc(OCc2ccccc2)c1)N1CCCc2nc(C3(c4ccccc4)CC3)[nH]c(=O)c2C1` [17-146] are below 50 nM and below 10 nM. Take `O=C(COc1cccc(C(F)(F)F)c1)N1CCCc2nc(C3(c4cccc(Cl)c4)CC3)[nH]c(=O)c2C1` [17-147]: the IC50 under setting [1] is below 50 nM. As for `CC(C)c1csc(C2(c3nc4c(c(=O)[nH]3)CN(C(=O)[C@H](O)c3cccc(C(F)(F)F)c3)CCC4)CC2)c1` [18-1], the IC50 runs as follows: under setting [1], below 50 nM; under setting [2], below 3 nM. On the same counts, the results for `O=C([C@H](O)c1cccc(C(F)(F)F)c1)N1CCCc2nc(C3(c4cc(Br)cs4)CC3)[nH]c(=O)c2C1` [18-2] are below 50 nM and below 3 nM. Take `O=C(C(O)c1cccc(C(F)(F)F)c1F)N1CCCc2nc(C3(c4cccs4)CC3)[nH]c(=O)c2C1` (centres unmarked) [18-3]: the IC50 is below 50 nM under setting [1] and below 3 nM under setting [2].

Consider `O=C([C@H](O)c1cccc(C(F)(F)F)c1)N1CCCc2nc(C3(c4cc(C5CCCCC5)cs4)CC3)[nH]c(=O)c2C1` [18-4], for which the 50% inhibitory concentration (IC50) runs as follows: under setting [1], below 50 nM; under setting [2], below 10 nM. With `O=C(C(O)c1cccc(-c2ccc(Cl)cc2)c1)N1CCCc2nc(C3(c4cccs4)CC3)[nH]c(=O)c2C1` (centres unmarked) [18-5], the IC50 under setting [1] was below 50 nM and the IC50 under setting [2] is below 10 nM.

In the case of `O=C(C(O)c1cccc(SC(F)(F)F)c1)N1CCCc2nc(C3(c4cccs4)CC3)[nH]c(=O)c2C1` (centres unmarked) [18-6], the concentration for half-maximal inhibition (IC50) by setting is: under setting [1], below 50 nM; under setting [2], below 10 nM. As to `CC(C)(C)c1cccc(C(O)C(=O)N2CCCc3nc(C4(c5cccs5)CC4)[nH]c(=O)c3C2)c1` (centres unmarked) [18-7], the 50% inhibitory concentration (IC50) is below 50 nM under setting [1] and below 10 nM under setting [2]. The corresponding values for `O=C(C(O)c1cccc(S(F)(F)(F)(F)F)c1)N1CCCc2nc(C3(c4cccs4)CC3)[nH]c(=O)c2C1` (centres unmarked) [18-8] are below 50 nM and below 10 nM. On the same counts, the results for `O=C([C@H](O)c1cccc(C(F)(F)F)c1)N1CCCc2nc(C3(c4cccs4)CC3)[nH]c(=O)c2C1` [18-9] are below 50 nM and below 10 nM. Regarding `O=C(C(O)c1cccc(Cl)c1F)N1CCCc2nc(C3(c4cccs4)CC3)[nH]c(=O)c2C1` (centres unmarked) [18-10], the half-inhibitory concentration (IC50) under setting [1] is below 50 nM. The same measure, in the same setting: next, `O=C([C@H](O)c1cccc(F)c1F)N1CCCc2nc(C3(c4cccs4)CC3)[nH]c(=O)c2C1` [18-11]: below 50 nM. Under setting [1], `O=C([C@H](O)c1cccc(Cl)c1)N1CCCc2nc(C3(c4cccs4)CC3)[nH]c(=O)c2C1` [18-12] returned a half-inhibitory concentration (IC50) below 50 nM.

Under setting [1], `O=C(C(O)c1cccc(C2CC2)c1)N1CCCc2nc(C3(c4cccs4)CC3)[nH]c(=O)c2C1` (centres unmarked) [18-13] yielded an IC50 below 50 nM. For `CC(C)c1csc(C2(c3nc4c(c(=O)[nH]3)CN(C(=O)C(O)c3cccc(C(C)(C)C)c3)CCC4)CC2)c1` (centres unmarked) [18-15], the IC50 was below 50 nM under setting [1] and below 10 nM under setting [2]. On the same counts, the results for `CC(C)c1csc(C2(c3nc4c(c(=O)[nH]3)CN(C(=O)C(O)c3cccc(C(F)(F)F)c3F)CCC4)CC2)c1` (centres unmarked) [18-16] are below 50 nM and below 10 nM. The corresponding values for `CC(C)c1csc(C2(c3nc4c(c(=O)[nH]3)CN(C(=O)C(O)c3cccc(Cl)c3F)CCC4)CC2)c1` (centres unmarked) [18-17] are below 50 nM and below 3 nM.

As for `CC(C)c1csc(C2(c3nc4c(c(=O)[nH]3)CN(C(=O)C(O)c3cccc(S(F)(F)(F)(F)F)c3)CCC4)CC2)c1` (centres unmarked) [18-18], the IC50 is, setting by setting: under setting [1], below 50 nM; under setting [2], below 10 nM.
